For assay [1], the target named is JAK2 (Homo sapiens (Human), UniProt O60674). In words: pSTAT5 Cell Assay (MSD, TF1 cells). The assay is classed as cell-based. The note with it: IL-3 stimulated, MSD. Put shortly:
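Serum-starved TF1 cells were pretreated with compound for 1 h (10-point four-fold series from 10 μM), then stimulated with 30 ng/mL IL-3 for 15 min. pSTAT5 in lysates was measured by MSD immunoassay. IC50 came from a 4-parameter logistic fit.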

Assay [2] has as its target JH2 domain of human Tyk2 (Homo sapiens (Human), UniProt P29597). In words: JH2 Biochemical Assay (TR-FRET probe displacement). The assay is classed as binding. The note with it: JH2 domain of human Tyk2, TR-FRET probe displacement. Background: Time-resolved FRET reads energy transfer from a long-lived donor to a nearby acceptor.
Assay [3] deals with Tyk2 (Homo sapiens (Human), UniProt P29597). In words: pSTAT4 Cell Assay (MSD, NK92 cells). The assay is classed as cell-based. The note with it: MSD.
Tyk2, sequence (P29597 whole entry): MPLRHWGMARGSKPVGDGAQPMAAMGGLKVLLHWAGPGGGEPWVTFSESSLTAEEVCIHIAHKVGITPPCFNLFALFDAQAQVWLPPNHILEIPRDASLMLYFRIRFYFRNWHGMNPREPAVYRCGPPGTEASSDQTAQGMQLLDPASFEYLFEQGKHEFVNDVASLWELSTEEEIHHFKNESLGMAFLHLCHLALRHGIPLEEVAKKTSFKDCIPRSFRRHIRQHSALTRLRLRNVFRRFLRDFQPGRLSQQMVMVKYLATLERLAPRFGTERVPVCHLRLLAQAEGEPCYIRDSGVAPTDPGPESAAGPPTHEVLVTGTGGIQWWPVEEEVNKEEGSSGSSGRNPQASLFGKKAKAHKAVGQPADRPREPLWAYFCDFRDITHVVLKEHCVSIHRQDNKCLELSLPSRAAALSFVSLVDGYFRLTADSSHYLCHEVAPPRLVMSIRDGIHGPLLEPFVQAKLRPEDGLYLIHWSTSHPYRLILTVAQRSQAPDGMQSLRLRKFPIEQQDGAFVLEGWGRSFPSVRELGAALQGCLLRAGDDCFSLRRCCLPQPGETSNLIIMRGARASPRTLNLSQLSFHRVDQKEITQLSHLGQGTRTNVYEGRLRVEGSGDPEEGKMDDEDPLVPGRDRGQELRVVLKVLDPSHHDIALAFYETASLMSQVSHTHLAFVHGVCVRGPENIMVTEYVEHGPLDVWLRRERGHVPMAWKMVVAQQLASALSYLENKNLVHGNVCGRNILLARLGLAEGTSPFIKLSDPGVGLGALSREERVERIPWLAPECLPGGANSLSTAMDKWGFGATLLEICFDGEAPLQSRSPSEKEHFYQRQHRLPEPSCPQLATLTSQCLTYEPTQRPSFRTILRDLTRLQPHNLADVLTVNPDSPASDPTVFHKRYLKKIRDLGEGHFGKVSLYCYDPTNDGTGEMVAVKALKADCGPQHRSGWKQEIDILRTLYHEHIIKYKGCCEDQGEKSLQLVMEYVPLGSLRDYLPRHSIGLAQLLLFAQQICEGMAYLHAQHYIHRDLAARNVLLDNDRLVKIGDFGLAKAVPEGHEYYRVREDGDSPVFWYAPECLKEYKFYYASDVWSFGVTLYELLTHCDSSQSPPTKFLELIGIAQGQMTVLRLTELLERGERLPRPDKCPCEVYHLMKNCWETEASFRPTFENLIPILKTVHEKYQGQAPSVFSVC
The target in assay [4] is JAK1 (Homo sapiens (Human), UniProt P23458). In words: pSTAT3 Cell Assay (MSD, TF1 cells). It is filed as cell-based. As to conditions: IL-6 stimulated, MSD. Put shortly:
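Readout is pSTAT3 in lysates, quantified on an MSD plate assay using anti-STAT3 antibodies. Before lysis, TF1 cells had been serum-starved, exposed to compound for 1 hour across ten four-fold dilutions starting at 10 μM, and given IL-6 for 15 minutes.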

Drawing on patent publication US20260028365A1 (BIOGEN MA INC., priority 2022, published 2026), this text covers IC50 for nine compounds.

Each structure is given as a SMILES string. A value given as a limit tells only on which side of the number the result lay.

JAK1, sequence (P23458 whole entry): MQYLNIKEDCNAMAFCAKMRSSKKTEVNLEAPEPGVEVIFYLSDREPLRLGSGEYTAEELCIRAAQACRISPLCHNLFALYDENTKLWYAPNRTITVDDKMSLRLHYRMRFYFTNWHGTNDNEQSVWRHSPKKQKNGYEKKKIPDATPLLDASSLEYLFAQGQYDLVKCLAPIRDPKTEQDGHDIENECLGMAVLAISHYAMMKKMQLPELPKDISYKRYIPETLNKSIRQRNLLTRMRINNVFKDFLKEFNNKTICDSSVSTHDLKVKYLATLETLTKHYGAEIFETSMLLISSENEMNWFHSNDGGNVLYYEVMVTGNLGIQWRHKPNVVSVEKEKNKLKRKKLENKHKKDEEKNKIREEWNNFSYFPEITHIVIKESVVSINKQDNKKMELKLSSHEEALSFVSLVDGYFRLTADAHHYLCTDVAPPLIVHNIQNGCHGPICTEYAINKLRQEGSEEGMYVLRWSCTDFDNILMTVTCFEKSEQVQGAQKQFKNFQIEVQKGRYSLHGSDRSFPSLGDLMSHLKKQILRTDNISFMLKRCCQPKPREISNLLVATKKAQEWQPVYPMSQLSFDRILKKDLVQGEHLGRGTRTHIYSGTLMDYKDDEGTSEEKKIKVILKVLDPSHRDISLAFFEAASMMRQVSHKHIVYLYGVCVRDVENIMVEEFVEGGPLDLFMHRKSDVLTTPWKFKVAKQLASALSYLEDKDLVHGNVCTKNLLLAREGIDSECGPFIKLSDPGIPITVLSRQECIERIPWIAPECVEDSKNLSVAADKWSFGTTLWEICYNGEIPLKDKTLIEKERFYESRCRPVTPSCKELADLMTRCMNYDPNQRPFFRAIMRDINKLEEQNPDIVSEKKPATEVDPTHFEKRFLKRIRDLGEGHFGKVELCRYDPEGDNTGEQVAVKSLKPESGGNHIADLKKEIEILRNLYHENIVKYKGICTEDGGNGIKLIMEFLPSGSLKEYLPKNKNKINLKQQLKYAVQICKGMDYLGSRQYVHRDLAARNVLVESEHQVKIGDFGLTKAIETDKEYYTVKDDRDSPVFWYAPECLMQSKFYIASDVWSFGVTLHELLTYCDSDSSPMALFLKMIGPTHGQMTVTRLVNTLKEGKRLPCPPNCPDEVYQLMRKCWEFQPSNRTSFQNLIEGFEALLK
JH2 domain of human Tyk2, sequence (P29597 575-876): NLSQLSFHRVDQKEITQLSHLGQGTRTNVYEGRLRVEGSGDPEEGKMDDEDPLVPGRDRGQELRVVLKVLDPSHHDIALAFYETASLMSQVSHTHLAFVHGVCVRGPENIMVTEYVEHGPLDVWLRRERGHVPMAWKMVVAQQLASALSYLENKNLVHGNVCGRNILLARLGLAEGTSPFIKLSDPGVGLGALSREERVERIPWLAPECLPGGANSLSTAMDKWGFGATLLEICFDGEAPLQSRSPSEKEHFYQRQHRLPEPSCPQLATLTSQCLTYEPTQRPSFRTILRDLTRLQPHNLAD
JAK2, sequence (O60674 whole entry): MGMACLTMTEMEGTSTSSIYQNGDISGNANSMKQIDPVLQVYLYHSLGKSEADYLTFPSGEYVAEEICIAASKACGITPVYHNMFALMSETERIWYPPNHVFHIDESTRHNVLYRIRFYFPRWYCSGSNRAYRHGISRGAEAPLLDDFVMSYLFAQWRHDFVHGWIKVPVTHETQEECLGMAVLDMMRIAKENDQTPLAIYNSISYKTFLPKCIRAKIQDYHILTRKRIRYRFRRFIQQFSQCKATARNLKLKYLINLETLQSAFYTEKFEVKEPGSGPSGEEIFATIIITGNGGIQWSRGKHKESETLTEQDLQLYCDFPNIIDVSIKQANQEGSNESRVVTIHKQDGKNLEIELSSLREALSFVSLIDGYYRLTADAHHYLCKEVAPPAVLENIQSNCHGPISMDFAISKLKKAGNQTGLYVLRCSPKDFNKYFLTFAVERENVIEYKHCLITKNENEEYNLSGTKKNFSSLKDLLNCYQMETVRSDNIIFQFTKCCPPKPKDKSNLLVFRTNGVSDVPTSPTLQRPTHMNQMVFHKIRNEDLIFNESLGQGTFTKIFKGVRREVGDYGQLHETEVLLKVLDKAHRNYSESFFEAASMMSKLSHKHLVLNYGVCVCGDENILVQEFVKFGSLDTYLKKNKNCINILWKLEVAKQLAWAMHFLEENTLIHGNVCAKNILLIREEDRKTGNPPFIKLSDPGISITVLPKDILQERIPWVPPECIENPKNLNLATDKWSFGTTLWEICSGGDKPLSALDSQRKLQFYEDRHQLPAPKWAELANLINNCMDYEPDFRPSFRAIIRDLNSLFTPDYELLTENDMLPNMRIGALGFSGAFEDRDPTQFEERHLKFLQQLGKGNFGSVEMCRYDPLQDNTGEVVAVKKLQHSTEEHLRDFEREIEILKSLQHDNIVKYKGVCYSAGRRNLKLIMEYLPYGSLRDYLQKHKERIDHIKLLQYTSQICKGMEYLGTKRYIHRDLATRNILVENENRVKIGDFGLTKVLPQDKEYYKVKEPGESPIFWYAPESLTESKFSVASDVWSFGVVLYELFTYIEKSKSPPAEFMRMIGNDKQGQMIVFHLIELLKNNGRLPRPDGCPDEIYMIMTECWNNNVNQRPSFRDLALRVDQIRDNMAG

As for `CC(=O)Nc1cc(Nc2cc(C)nc(C(C)(C)F)n2)c(-c2ccn3ncnc3n2)cn1` [Example 534, N-(5-([1,2,4]triazolo[1,5-a]pyrimidin-5-yl)-4-((2-(2-fluoropropan-2-yl)-6-methylpyrimidin-4-yl)amino)pyridin-2-yl)acetamide], the IC50 – broadly, the point on the concentration scale where inhibition reaches its midpoint – in assay [1] was not below 1000 nM; in assay [2], not above 10 nM; in assay [3], not above 10 nM; in assay [4], not below 1000 nM.
With `CC(=O)Nc1cc(Nc2cc(C)nc(C34COC(C3)C4)n2)c(-c2ccn(C)n2)cn1` [Example 552, N-(4-((2-(2-oxabicyclo[2.1.1]hexan-4-yl)-6-methylpyrimidin-4-yl)amino)-5-(1-methyl-1H-pyrazol-3-yl)pyridin-2-yl)acetamide], the IC50 was not below 1000 nM in assay [1], not above 10 nM in assay [2], 10 to 100 nM in assay [3] and not below 1000 nM in assay [4].
`COCc1ccc(-c2cnc(NC(C)=O)cc2Nc2cc(C)nc(C34COC(C3)C4)n2)nc1` [Example 565, N-(4′-((2-(2-oxabicyclo[2.1.1]hexan-4-yl)-6-methylpyrimidin-4-yl)amino)-5-(methoxymethyl)-[2,3′-bipyridin]-6′-yl)acetamide]: the IC50 was not below 1000 nM in assay [1], not above 10 nM in assay [2], not above 10 nM in assay [3] and not below 1000 nM in assay [4].
For `CCc1cc(Nc2cc(NC(C)=O)ncc2-c2ccc(COC)cn2)nc(C23COC(C2)C3)n1` [Example 566, N-(4′-((2-(2-oxabicyclo[2.1.1]hexan-4-yl)-6-ethylpyrimidin-4-yl)amino)-5-(methoxymethyl)-[2,3′-bipyridin]-6′-yl)acetamide], the IC50 in assay [1] was not below 1000 nM; in assay [2], not above 10 nM; in assay [3], not above 10 nM; in assay [4], not below 1000 nM.
As to `CC(=O)Nc1cc(Nc2ccnc(C(C)(F)F)n2)c(-c2ccc(F)cn2)cn1` [Example 580, N-(4′-((2-(1,1-difluoroethyl)pyrimidin-4-yl)amino)-5-fluorO[2,3′-bipyridin]-6′-yl)acetamide], the IC50 in assay [1] is not below 1000 nM; in assay [2], not above 10 nM; in assay [3], not above 10 nM; in assay [4] it was not below 1000 nM.
In the case of `CCc1cc(Nc2cc(NC(C)=O)ncc2-c2coc(C)n2)nc(C(C)(F)F)n1` [Example 584, N-(4-((2-(1,1-difluoroethyl)-6-ethylpyrimidin-4-yl)amino)-5-(2-methyloxazol-4-yl)pyridin-2-yl)acetamide], the IC50 in assay [1] is not below 1000 nM; in assay [2] it was not above 10 nM; in assay [3] it was not above 10 nM; in assay [4], not below 1000 nM.
With `CC(=O)Nc1cc(Nc2cc(C)nc(C(C)(F)F)n2)c(-c2ccc(F)cn2)cn1` [Example 594, N-(4′-((2-(1,1-difluoroethyl)-6-methylpyrimidin-4-yl)amino)-5-fluorO[2,3′-bipyridin]-6′-yl)acetamide], the IC50 in assay [1] was not below 1000 nM; in assay [2], not above 10 nM; in assay [3] it was not above 10 nM; in assay [4] it was not below 1000 nM.
As for `CC(=O)Nc1cc(Nc2cc(C)nc(C(C)(F)F)n2)c(-c2cocn2)cn1` [Example 596, N-(4-((2-(1,1-difluoroethyl)-6-methylpyrimidin-4-yl)amino)-5-(oxazol-4-yl)pyridin-2-yl)acetamide], the IC50 in assay [1] was not below 1000 nM; in assay [2], not above 10 nM; in assay [3], not above 10 nM; in assay [4], not below 1000 nM.
As for `CC(=O)Nc1cc(Nc2cc(C)nc(C(C)(F)F)n2)c(-c2cnc(F)cn2)cn1` [Example 598, N-(4-((2-(1,1-difluoroethyl)-6-methylpyrimidin-4-yl)amino)-5-(5-fluoropyrazin-2-yl)pyridin-2-yl)acetamide], the IC50 was not below 1000 nM in assay [1], not above 10 nM in assay [2], 10 to 100 nM in assay [3] and not below 1000 nM in assay [4].
